Source: US11786530B2, “Method against severe acute respiratory syndrome coronavirus 2 infection” (National Yang Ming Chiao Tung University, priority 2021, dated 2023)

Tests used:
SARS-CoV-2 WA strain = assay: Inhibition of SARS-CoV-2 in infected Vero E6 cells (MTT, OD590) with ZIP delta synergy score; assay type: cell-based; conditions: Severe acute respiratory syndrome coronavirus 2, Vero C1008, 72 h, read-out: Inhibition rate
SARS-CoV-2 = conditions: model cell lines; cited from earlier work

SMILES | inhibition at 3 µM (SARS-CoV-2 WA strain) | inhibition at 0.2 µM (SARS-CoV-2 WA strain; Comparative group 2: MTX 0.2 μM, remdesivir 0 μM, Vero E6 cells, 3 days) | inhibition of SARS-CoV-2 replication (SARS-CoV-2)
CCC(CC)COC(=O)[C@H](C)N[P@](=O)(OC[C@H]1O[C@@](C#N)(c2ccc3c(N)ncnn23)[C@H](O)[C@@H]1O)Oc1ccccc1 [remdesivir] | 4.57% |  | 
CN(Cc1cnc2nc(N)nc(N)c2n1)c1ccc(C(=O)N[C@@H](CCC(=O)O)C(=O)O)cc1 [MTX, methotrexate] |  | 11.7% | dose-dependent, potent inhibition
